Assay results: article PMC3304000 (Bioorganic & medicinal chemistry, 2012)
≈ marks a conversion by molar mass, not a printed value. Where “and” joins values, the source holds several entries; their conditions need not be identical. Equal values may be shown once.

tested on: MDR-TB resistant to HREKP; assay: microbe, parasite or virus in culture; type: cell-based; conditions: Mycobacterium tuberculosis

Question: How did the MIC turn out when `O=C(OCc1ccccc1)c1coc(-c2ccccc2)n1` [Compound 2] was run?
Answer: 0.3 µg/mL (≈ 1.07 µM)

Question: `O=C(OCc1ccccc1)c1csc(-c2ccccc2)n1` [Compound 5] was tested. Which MIC did it give?
Answer: 1.25 µg/mL (≈ 4.23 µM)

Question: For `Cc1ccn2c(C(=O)OCc3ccccc3)c(C)nc2c1` [Compound 11, benzyl 2,7-dimethylimidazo[1,2-a]pyridine-3-carboxylate], which MIC is on record?
Answer: < 0.01 µg/mL

Question: For `O=[N+]([O-])c1cn2c(n1)OC[C@@H](OCc1ccc(OC(F)(F)F)cc1)C2` [PA-824, reference compound], which MIC is on record?
Answer: 0.45 µM to 0.86 µM and 0.16 µg/mL to 0.31 µg/mL

tested on: MDR-TB resistant to HREZSKP; assay: microbe, parasite or virus in culture; type: cell-based; conditions: Mycobacterium tuberculosis

Question: For `O=C(OCc1ccccc1)c1coc(-c2ccccc2)n1` [Compound 2], which MIC is on record?
Answer: 2.5 µg/mL (≈ 8.95 µM)

Question: Which MIC does the source give for `O=C(OCc1ccccc1)c1csc(-c2ccccc2)n1` [Compound 5] here?
Answer: 10 µg/mL (≈ 33.9 µM)

Question: With `Cc1ccn2c(C(=O)OCc3ccccc3)c(C)nc2c1` [Compound 11, benzyl 2,7-dimethylimidazo[1,2-a]pyridine-3-carboxylate] as the molecule, how does the MIC read?
Answer: < 0.01 µg/mL

Question: Which MIC does the source give for `O=[N+]([O-])c1cn2c(n1)OC[C@@H](OCc1ccc(OC(F)(F)F)cc1)C2` [PA-824, reference compound] here?
Answer: 0.45 µM to 0.86 µM and 0.16 µg/mL to 0.31 µg/mL

tested on: MDR-TB resistant to HRERb; assay: microbe, parasite or virus in culture; type: cell-based; conditions: Mycobacterium tuberculosis, MDR-TB resistant to HRERb (isoniazid, rifampin, ethambutol, rifabutin)

Question: Which MIC does the source give for `Cc1ccn2c(C(=O)OCc3ccccc3)c(C)nc2c1` [Compound 11, benzyl 2,7-dimethylimidazo[1,2-a]pyridine-3-carboxylate] here?
Answer: 0.6 µM

Question: How did the MIC turn out when `O=[N+]([O-])c1cn2c(n1)OC[C@@H](OCc1ccc(OC(F)(F)F)cc1)C2` [PA-824, reference compound] was run?
Answer: 0.45 to 0.86 µM

same assay, conditions: Mycobacterium tuberculosis, MDR-TB resistant to HRERb; value in parentheses

Question: Which MIC does the source give for `O=C(OCc1ccccc1)c1coc(-c2ccccc2)n1` [Compound 2] here?
Answer: 2.5 µg/mL

Question: Which MIC does the source give for `O=C(OCc1ccccc1)c1csc(-c2ccccc2)n1` [Compound 5] here?
Answer: 10 µg/mL

Question: How did the MIC turn out when `Cc1ccn2c(C(=O)OCc3ccccc3)c(C)nc2c1` [Compound 11, benzyl 2,7-dimethylimidazo[1,2-a]pyridine-3-carboxylate] was run?
Answer: 0.16 µg/mL

Question: How did the MIC turn out when `O=[N+]([O-])c1cn2c(n1)OC[C@@H](OCc1ccc(OC(F)(F)F)cc1)C2` [PA-824, reference compound] was run?
Answer: 0.16 to 0.31 µg/mL

tested on: XDR-TB resistant to HREKO; assay: microbe, parasite or virus in culture; type: cell-based; conditions: Mycobacterium tuberculosis

Question: With `O=C(OCc1ccccc1)c1coc(-c2ccccc2)n1` [Compound 2] as the molecule, how does the MIC read?
Answer: 2.5 µg/mL (≈ 8.95 µM)

Question: How did the MIC turn out when `O=C(OCc1ccccc1)c1csc(-c2ccccc2)n1` [Compound 5] was run?
Answer: 5 µg/mL (≈ 16.9 µM)

Question: `Cc1ccn2c(C(=O)OCc3ccccc3)c(C)nc2c1` [Compound 11, benzyl 2,7-dimethylimidazo[1,2-a]pyridine-3-carboxylate] was tested. Which MIC did it give?
Answer: < 0.01 µg/mL

Question: `O=[N+]([O-])c1cn2c(n1)OC[C@@H](OCc1ccc(OC(F)(F)F)cc1)C2` [PA-824, reference compound] was tested. Which MIC did it give?
Answer: 0.08 µg/mL (≈ 0.223 µM)

tested on: XDR-TB resistant to HRESKO; assay: microbe, parasite or virus in culture; type: cell-based; conditions: Mycobacterium tuberculosis

Question: With `O=C(OCc1ccccc1)c1coc(-c2ccccc2)n1` [Compound 2] as the molecule, how does the MIC read?
Answer: 1.25 µg/mL (≈ 4.48 µM)

Question: How did the MIC turn out when `O=C(OCc1ccccc1)c1csc(-c2ccccc2)n1` [Compound 5] was run?
Answer: 5 µg/mL (≈ 16.9 µM)

Question: How did the MIC turn out when `Cc1ccn2c(C(=O)OCc3ccccc3)c(C)nc2c1` [Compound 11, benzyl 2,7-dimethylimidazo[1,2-a]pyridine-3-carboxylate] was run?
Answer: < 0.01 µg/mL

Question: How did the MIC turn out when `O=[N+]([O-])c1cn2c(n1)OC[C@@H](OCc1ccc(OC(F)(F)F)cc1)C2` [PA-824, reference compound] was run?
Answer: 0.31 µg/mL (≈ 0.863 µM)
